Assay [1] in a line: Anticancer activity against human NMC-797 cells after 48 hrs by viability assay. The class given is functional, cell-based. To be noted: NMC-797, 48 h.
Assay [2] can be described thus: Anticancer activity against human MJ cells after 48 hrs by viability assay. The class given is functional, cell-based.
The test system of another assay is Escherichia coli. Kind of assay: Antimicrobial activity against Escherichia coli K-12 ATCC 25404 assessed as growth inhibition after 20 hrs by two-fold microdilution method. It counts as functional, organism-based. To be noted: K-12 ATCC 25404, 20 h. On the technique in general: Broth dilution looks for growth in wells or tubes with falling amounts of substance.

Assay [3] concerns Mycolicibacterium smegmatis. Briefly: Antimicrobial activity against Mycobacterium smegmatis strain MC2 155 ATCC 700084 assessed as growth inhibition after 20 hrs by two-fold microdilution method. It counts as functional, organism-based. To be noted: MC2 155 ATCC 700084, 20 h.
A further assay concerns Bacillus subtilis. Briefly: Antimicrobial activity against Bacillus subtilis Marburg ATCC 6051 assessed as growth inhibition after 20 hrs by two-fold microdilution method. It counts as functional, organism-based. To be noted: Marburg ATCC 6051, 20 h.

Values after ≈ are worked out from the molar mass of the structure shown.

As to `O=C1C=C[C@]2(CCOCO2)O1` (racemic), the half-inhibitory concentration (IC50) (as a rule, the concentration needed to halve the response being measured) in assay [1] is 8600 nM; in assay [2], more than 20000 nM.

`O=C1C=C[C@]2(C[C@@H](c3cccc(Cl)c3)O[C@@H](c3cccc(Cl)c3)O2)O1` (racemic): the IC50 in the assay on Escherichia coli was more than 500000 nM; in assay [1], 82 nM; in assay [3], more than 500000 nM; in assay [2], 260 nM; in the assay on Bacillus subtilis, 408000 nM. In addition, the MIC95 (in the assay with Escherichia coli; in assay [3]; with Bacillus subtilis) was more than 500 µM each time.

As for `O=C1C=C[C@]2(C[C@@H](c3ccccc3)O[C@@H](c3ccccc3)O2)O1` (racemic), the IC50 in the assay with Escherichia coli was more than 500000 nM; in assay [1] it was 900 nM; in assay [3], more than 500000 nM; in assay [2] it was 1700 nM; in the assay on Bacillus subtilis it was 224000 nM. Also, the MIC95 (with Escherichia coli; in assay [3]; with Bacillus subtilis) was more than 500 µM each time.

On to `O=C1C=C[C@]2(C[C@@H](c3c(F)c(F)c(F)c(F)c3F)O[C@@H](c3c(F)c(F)c(F)c(F)c3F)O2)O1` (racemic), for which the results for the concentration for half-maximal inhibition (IC50) in assay [1] and in assay [2] were 570 nM and 2000 nM, respectively.

Consider `O=C1C=C[C@]2(C[C@@H](c3ccccc3)O[C@@H](c3cccc([N+](=O)[O-])c3)O2)O1` (racemic), for which the figures for the IC50 in assay [1] and in assay [2] were 120 nM and 340 nM, respectively.

`CC1[C@@H](c2cccc([N+](=O)[O-])c2)O[C@@H](c2cccc([N+](=O)[O-])c2)O[C@@]12C=CC(=O)O2` (mixture of isomers): the results for the concentration for half-maximal inhibition (IC50) in assay [1] and in assay [2] were 12000 nM and more than 20000 nM, respectively.

Turning to `O=C1C=C[C@]2(C[C@@H](c3cccc([N+](=O)[O-])c3)O[C@@H](c3cccc([N+](=O)[O-])c3)O2)O1` (racemic), the half-maximal inhibitory concentration (IC50) with Escherichia coli is more than 500000 nM; in assay [1], 47 nM; in assay [3], more than 500000 nM; in assay [2] it was 170 nM; with Bacillus subtilis, 216000 nM. The figures for the MIC95 (in the assay with Escherichia coli; in assay [3]; in the assay with Bacillus subtilis) were more than 500 µM, more than 500 µM and 425 µM (≈ 169 µg/mL), respectively.

`O=C1C=C[C@]2(C[C@@H](c3ccc([N+](=O)[O-])cc3)O[C@@H](c3ccc([N+](=O)[O-])cc3)O2)O1` (racemic): the results for the IC50 in assay [1] and in assay [2] were 26 nM and 190 nM, respectively.

Take `O=C1C=C[C@]2(C[C@@H](c3ccc4ccccc4c3[N+](=O)[O-])O[C@@H](c3ccc4ccccc4c3[N+](=O)[O-])O2)O1` (racemic): the IC50 was 7600 nM in assay [1] and more than 20000 nM in assay [2].

As for `O=C1C=C[C@]2(C[C@@H](c3ccccc3[N+](=O)[O-])O[C@@H](c3ccccc3[N+](=O)[O-])O2)O1` (racemic), the values for the IC50 in assay [1] and in assay [2] were 64 nM and 170 nM, respectively.

For the compound `O=C1C=C[C@]2(C[C@@H](c3cccc([N+](=O)[O-])c3)O[C@@H](c3ccccc3)O2)O1` (racemic), the half-maximal inhibitory concentration (IC50) in assay [1] was determined as 160 nM; in assay [2] it was 370 nM.

In the case of `O=C1CC[C@]2(C[C@@H](c3cccc(C(F)(F)F)c3)O[C@@H](c3cccc(C(F)(F)F)c3)O2)O1` (racemic), the IC50 in assay [1] and in assay [2] was more than 20000 nM in each case.

For the compound `O=C1C=C[C@]2(C[C@@H](c3coc([N+](=O)[O-])c3)O[C@@H](c3coc([N+](=O)[O-])c3)O2)O1` (racemic), the figures for the IC50 in assay [1] and in assay [2] were 340 nM and 820 nM, respectively.

In the case of `O=C1C=C[C@]2(C[C@@H](c3cccc(C(F)(F)F)c3)O[C@@H](c3cccc(C(F)(F)F)c3)O2)O1` (racemic), the 50% inhibitory concentration (IC50) in assay [1] worked out at 30 nM; in assay [2], 190 nM.
